Like-named read-outs stand apart in the source and are kept apart here.
How the values were obtained:
[1] = test system: P. gingivalis W83 within gingival H413 epithelial cells; assay: Intracellular killing assay in infected H413 epithelial cells; format: cell-based, Porphyromonas gingivalis; details: H413 cells infected by W83, CFU count
From the text: Fig. 5 A prototype DPIX-conjugated antibiotic binds HusA and inhibits P. gingivalis. a The chemical structure of the deuteroporphyrin-lysine-metronidazole adduct, P8. b NMR signal intensity changes (black) and ^1H^N CSPs (red/green) for HusA upon addition of P8 (measured from ^15N-HSQC spectra shown in Supplementary Figure 21). c In silico docking of P8 to the energy minimized structure of HusA (conformer set 1), with residues experiencing NMR signal loss (orange) or CSPs (red/green) mapped to the structure (colouring as described in Fig. 2d). d Scaled and corrected fluorescence at 335 nm during titration of 1 μM of HusA with increasing concentrations of P8, haemin or DPIX. e Comparison of P8 inhibitory effect towards P. gingivalis wild-type W83 and husA mutants using checkerboard analysis. Serial dilutions of antibiotics (horizontal axis) were applied to a 96-well plate with different P. gingivalis strains (vertical axis). Serial dilutions of DPIX were also supplemented into wild-type W83 group to evaluate the competitive effect against P8. Absorption at OD600 of each well was recorded after 24 h of incubation. The OD600 of each strain grown in the absence of antibiotics was defined as 100% growth, which was applied to normalise the reading collected from other wells. […] Recovered bacteria were determined by CFU count. […]

[2] = target: T1, HusA (Porphyromonas gingivalis, UniProt Q7MSY3); assay: Tryptophan fluorescence quenching assay, HusA wild-type; format: binding
T1 sequence (Q7MSY3 24-218): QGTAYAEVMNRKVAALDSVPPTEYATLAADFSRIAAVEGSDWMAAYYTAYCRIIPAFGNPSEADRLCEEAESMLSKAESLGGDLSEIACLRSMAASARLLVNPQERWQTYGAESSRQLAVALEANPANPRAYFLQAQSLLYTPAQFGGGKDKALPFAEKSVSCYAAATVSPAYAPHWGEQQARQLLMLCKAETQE
Experimental: The quenching of intrinsic tryptophan fluorescence of HusA upon porphyrin additions was measured using a Carey Eclipse Fluorescence Spectrophotometer (Agilent) set to a photo multiplier effect (PME) of 850. A 5-mm path length quartz cuvette was used and all spectra were acquired at room temperature. Excitation was set to 295 nm and emission was measured from 300 nm to 500 nm using excitation/emission slit widths of 5 nm. Binding assays were performed at a protein concentration of 1 μM HusA in standard buffer at a working volume of 0.5 mL. […] The fluorescence quenching of HusA by PPIX was investigated in a similar manner with the following difference: the fluorescence intensities of ten 1 μM HusA samples were measured each with increasing amounts of PPIX after a 2-h incubation period to allow equilibrium to be reached. See Supplementary Methods for correction for inner filter effect and curve fitting. […]
Correction of inner filter effect and curve fitting in tryptophan fluorescence quenching assays The concentration of NATA was chosen such that the raw fluorescence intensity was similar to the […] concentrations of HusA and mutants used. The same molarity titrants of porphyrin were titrated into NATA as were added into HusA in the control reactions. Fluorescence intensity was scaled with respect to the starting florescence and corrected for the inner filter effect. Fluorescence at 335 nm was used to fit binding curves.
The correction method is based on Fonin AV., et al.26, noting that a Cary Eclipse spectrofluorimeter […]
performed to measure the contribution to the decrease in fluorescence due to the inner filter effect and this effect was scaled to the starting fluorescence values as fractional changes. The measured fluorescence at each titration point for each of the porphyrin titrations into protein was then adjusted for this contribution. Fluorescence at 335 nm was used to fit binding curves. Association constant, Ka, was fitted using the following equation in Origin, assuming a single binding site. A dissociation constant, Kd, was calculated by taking the inverse of the Ka.
Xobs = XA×f A+XAB×f AB (1) where XA is the corrected fluorescence, fA=1-fAB, fAB=x/(Bt), x=(-b-sqrt(b2-4×c))/2, b=-(1/Ka+At+Bt), c=Bt×At, Bt=total concentration of protein, At=total concentration of ligand.
To aid comparison of the different titrations, the corrected fluorescence was scaled to the starting fluorescence in the absence of porphyrins (i.e. all fluorescence curves have a starting value of one

[3] = target: HusA; details: previously reported; now considered far weaker; cited from earlier work

SMILES	killing of intracellular P. gingivalis [1]	Kd ([2]; estimate by comparison to other porphyrins, not fitted, UV-visible absorption and fluorescence data, read-out: affinity for HusA) [µM]	Kd ([2]; HusA wild-type 1 µM, fit to 1:1 binding model) [µM]	Kd [3] [µM]
CC1=Cc2cc3[nH]c(cc4nc(cc5[nH]c(cc1n2)cc5C)C(C)=C4CCC(=O)N[C@@H](CCCCNC(=O)OC(C)(C)C)C(=O)NCCn1c([N+](=O)[O-])cnc1C)c(CCC(=O)O)c3C [P8]	more effective than metronidazole	1 to 10	–	–
C=CC1=C(C)c2cc3[nH]c(cc4nc(cc5[nH]c(cc1n2)c(C)c5CCC(=O)O)C(CCC(=O)O)=C4C)c(C)c3C=C.[Fe+3] [haemin]	–	–	7.3 ± 1.1	~0.002

Reference: paper PMC6173696, “Structural properties of a haemophore facilitate targeted elimination of the pathogen Porphyromonas gingivalis” (Nature Communications, 2018)
